{
  "source": "ChEMBL document CHEMBL4184333",
  "about": "“Expanding Benzoxazole-Based Inosine 5'-Monophosphate Dehydrogenase (IMPDH) Inhibitor Structure-Activity As Potential Antituberculosis Agents” (J Med Chem, 2018)",
  "data": [
    {"test_system": "Mycobacterium tuberculosis", "assay": "Antitubercular activity against Mycobacterium tuberculosis SRMV2.6 harboring IMPDH2 Y487C mutant using 7H9/ADC/Tween medium after 1 week in absence of guanine by Alamar blue assay", "type": "functional", "units": {"MIC": "µM"}, "values": [
      {"compound": "C[C@H](Nc1cccc(F)c1F)C(=O)Nc1ccc2oc(-c3ccc(C#N)cc3)nc2c1", "MIC": ">100"},
      {"compound": "C[C@H](Oc1cccc(Cl)c1Cl)C(=O)Nc1ccc2oc(-c3ccc(C(=O)O)cc3)nc2c1", "MIC": 25},
      {"compound": "CCOC(=O)COc1ccc(-c2nc3cc(NC(=O)[C@H](C)Oc4cccc(Cl)c4Cl)ccc3o2)cc1", "MIC": 3.1},
      {"compound": "COc1ccc(OC(C)C(=O)Nc2ccc3oc(-c4ccncc4)nc3c2)cc1", "note": "(centres undefined)", "MIC": ">100"}
    ]}
  ]
}
